Assays:
TNF-alpha [1] = test: TNF-alpha ELISA in differentiated THP-1 cells infected with P. aeruginosa DNA; assay type: cell-based, human; details: 6 micrograms P. aeruginosa DNA, 24 hours post infection; DNA alone 1,200
Procedure: 3 sets of differentiated THP-1 cells were infected with 6 micrograms of […], 6 micrograms of P. aeruginosa DNA and composition A from Table 1, above, 6 micrograms of P. aeruginosa DNA and moxifloxacin, or 6 micrograms of P. aeruginosa DNA, moxifloxacin and composition A. 24 hours post infection the cells were assayed for TNF-alpha protein levels via ELISA. Results of this study can be found in FIGS. 3A and 3B.

free DNA = test: Free DNA binding, ethidium bromide displacement assay; details: incubated with free DNA in a petri dish
Procedure: Voriconazole, moxifloxacin, composition A from Table 1, above, a combination of voriconazole and composition A and a combination of moxifloxacin and composition A were each individually incubated with free DNA in a petri dish with and without the addition of voriconazole or moxifloxacin. The percentage of free DNA bound was measured using an ethidium bromide displacement assay. See results in FIG. 1.
Compositions #1-3 from Table 1, above, were each individually incubated with free DNA in a petri dish at concentrations of 1% and 10% in PBS buffer. The percentage of free DNA bound was measured using an ethidium bromide displacement assay.

TNF-alpha [2] = test: TNF-alpha ELISA in differentiated THP-1 cells infected with A. flavus DNA; assay type: cell-based, human; details: 6 micrograms A. flavus DNA, 24 hours post infection; DNA alone 180
Excerpt: Tumor Necrosis Factor alpha secretion (“TNF-alpha”) is a marker for DNA-induced inflammation. See, Campbell et al., CpG-containing immunostimulatory DNA sequences elicit TNF-alpha-dependent toxicity in rodents but not in humans, 2009, J Clin Invest, 119(9), 2564-2576. 3 sets of differentiated human leukemia monocytic (“differentiated THP-1”) cells were infected with 6 micrograms of A. flavus DNA, 6 micrograms of A. flavus DNA and composition A, 6 micrograms of A. flavus DNA and voriconazole, or 6 micrograms of A. flavus DNA, voriconazole and composition A. 24 hours post infection the cells were assayed for TNF-alpha protein levels via enzyme-linked immunosorbent assays (“ELISA”). Results of this study can be found in FIGS. 2A and 2B.
6 sets of differentiated THP-1 cells were infected with 1) nothing, 2) lipofectamine™ 2000 transfectin reagent, 3) 6 micrograms of A. flavus DNA, 4) 6 micrograms of A. flavus DNA and composition #1 from Table 1, above, 5) 6 micrograms of A. flavus DNA and composition #2 from Table 1, above, 6) 6 micrograms of A. flavus DNA and composition #3 from Table 1, above. 24 hours post infection the cells were assayed for TNF-alpha protein levels via ELISA.

Row | percentage of free DNA bound (free DNA) | Compound | TNF-alpha protein levels (TNF-alpha [1]) | TNF-alpha protein levels (TNF-alpha [2])
1 |  | COc1c(N2C[C@@H]3CCCN[C@@H]3C2)c(F)cc2c(=O)c(C(=O)O)cn(C3CC3)c12 [moxifloxacin] | 450 picograms per milliliter | 
2 | 0% | C[C@@H](c1ncncc1F)[C@](O)(Cn1cncn1)c1ccc(F)cc1F [voriconazole] |  | 85 picograms per milliliter
